From ChEMBL document CHEMBL1201862, “PubChem BioAssay data set” (2004) come the findings set out here.

Test systems include CAKI-1; CCRF-CEM; HCT-116; HCT-15; KM12; OVCAR-5; RPMI-8226; RXF 393; SF-268; SK-OV-3; SR; TK-10; U-251; UACC-257; UO-31; DU-145; Hs-578T; MDA-MB-231; T47D; BT-549.
What all share (assay): DTP human tumour cell line panel, 48 h

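Growth conditions: 96-well plates. Treatment: test compound, 48 hours, 5 concentrations. Analysis: linear interpolation between bracketing concentrations; unreached endpoints set to highest concentration. GI50 is the concentration that inhibits growth by half.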 The source made the active and inactive calls. No stated cut-off is given here; in the data, active = GI50 up to about 1.1 µM and inactive = higher. Where only a bound is given, the exact number is not on record here.

As for `CN1CCN(C)C12C=CC=CC21CC1`, the GI50 with CAKI-1 is > 100 µM (inactive); with CCRF-CEM, > 100 µM (inactive); in the assay with HCT-116 it was > 100 µM (inactive); with HCT-15, over 100 µM; in the assay on KM12, > 100 µM (inactive); in the assay with OVCAR-5, > 100 µM (inactive). The GI50 in the assay on RPMI-8226, with RXF 393, with SF-268, in the assay on SK-OV-3, in the assay with SR and in the assay with TK-10 was > 100 µM (inactive) each time. The GI50 with U-251, in the assay with UACC-257 and in the assay with UO-31 was > 100 µM (inactive) in each case.
Turning to `CN(C)c1nc(N(C)C)nc(N(C)CN(C)c2nc(N(C)C)nc(N(C)C)n2)n1`, the GI50 with CAKI-1 is > 100 µM (inactive); in the assay with CCRF-CEM it was > 100 µM (inactive); in the assay on HCT-116 it was > 100 µM (inactive); in the assay with HCT-15, over 100 µM; in the assay with KM12, > 100 µM (inactive); in the assay on OVCAR-5, > 100 µM (inactive). Also, the GI50 in the assay on RPMI-8226, in the assay on RXF 393, in the assay with SF-268, with SK-OV-3, in the assay with SR and in the assay with TK-10 was > 100 µM (inactive) throughout. Also, the GI50 in the assay with U-251, with UACC-257 and in the assay with UO-31 was > 100 µM (inactive) throughout.
With `CCOP(=O)(Cc1nc(C#N)c(N)o1)OCC`, the GI50 in the assay with CAKI-1 was > 100 µM (inactive); with CCRF-CEM, > 100 µM (inactive); in the assay with DU-145, > 100 µM (inactive); with HCT-116 it was > 100 µM (inactive); in the assay on HCT-15, over 100 µM; with Hs-578T it was > 100 µM (inactive). Also, the GI50 in the assay with KM12, with MDA-MB-231, in the assay on OVCAR-5, in the assay on RPMI-8226, in the assay with RXF 393 and in the assay on SF-268 was > 100 µM (inactive) in each case. Moreover, the GI50 in the assay on SK-OV-3, with SR, with TK-10, in the assay with U-251 and with UACC-257 was > 100 µM (inactive) each time.
For `CCOC(=O)c1c[nH]c2c(ccc3ncccc32)c1=O`, the GI50 in the assay with CCRF-CEM was > 100 µM (inactive); in the assay with HCT-116, > 100 µM (inactive); in the assay on HCT-15, over 100 µM; in the assay with KM12, > 100 µM (inactive); with OVCAR-5 it was > 100 µM (inactive); in the assay with RXF 393, > 100 µM (inactive). Moreover, the GI50 in the assay on SF-268, with SK-OV-3, with SR, in the assay with TK-10, with U-251 and in the assay with UACC-257 was > 100 µM (inactive) throughout. Moreover, in the assay with UO-31, the GI50 was > 100 µM (inactive).
Take `Cc1c2ccncc2c(C)c2c1[nH]c1ccc(Oc3ccccc3)cc12`: the GI50 with CAKI-1 was 3.61 µM (inactive); in the assay on CCRF-CEM, 2.17 µM (inactive); in the assay with HCT-116 it was 2.56 µM (inactive); with HCT-15, 1.44 µM; with KM12 it was 2.6 µM (inactive); with OVCAR-5, 1.86 µM (inactive). Also, the GI50 in the assay on RPMI-8226 was 1.88 µM (inactive); in the assay on RXF 393, 1.86 µM (inactive); in the assay on SF-268, 3.39 µM (inactive); in the assay on SK-OV-3 it was 6.46 µM (inactive); in the assay with SR, 2.85 µM (inactive); in the assay on TK-10, 8.18 µM (inactive). Also, the GI50 with U-251 is 1.67 µM (inactive); in the assay on UACC-257, 2.45 µM (inactive); with UO-31, 11 µM (inactive).
On to `CSc1cc(Cl)c(C)cc1S(=O)(=O)NC(=O)NNc1ccc(C)cc1`, for which the GI50 was 82 µM (inactive) with CAKI-1; > 100 µM (inactive) with CCRF-CEM; 48.9 µM (inactive) in the assay on DU-145; > 100 µM (inactive) in the assay with HCT-116; over 100 µM with HCT-15; > 100 µM (inactive) with Hs-578T. Also, the GI50 with KM12 was 78.3 µM (inactive); in the assay with MDA-MB-231, > 100 µM (inactive); in the assay with OVCAR-5 it was > 100 µM (inactive); with RXF 393, > 100 µM (inactive); in the assay on SF-268, > 100 µM (inactive); with SK-OV-3, 68.9 µM (inactive). For the same compound, the GI50 is 40.2 µM (inactive) in the assay with SR, 61.9 µM (inactive) with T47D and > 100 µM (inactive) in the assay on U-251.
As to `C[C@]12CC[C@H](O)CC1=CC[C@@H]1C2CC[C@]2(C)C(=O)N(N)C(=O)CC12` (stereo not given in full), the GI50 in the assay on CAKI-1 was > 100 µM (inactive); with CCRF-CEM it was > 100 µM (inactive); with HCT-116 it was > 100 µM (inactive); in the assay on HCT-15 it was over 100 µM; in the assay with KM12 it was > 100 µM (inactive); in the assay with OVCAR-5 it was > 100 µM (inactive). Further, the GI50 with RPMI-8226, with RXF 393, in the assay with SF-268, with SK-OV-3, in the assay with SR and with TK-10 was > 100 µM (inactive) in each case. The GI50 in the assay with U-251, in the assay with UACC-257 and in the assay on UO-31 was > 100 µM (inactive) throughout.
Turning to `COC(=O)C(=O)C(C#N)c1cccc(Cl)c1` (stereo not given), the GI50 in the assay on CAKI-1 was > 100 µM (inactive); in the assay on CCRF-CEM, > 100 µM (inactive); with HCT-116, > 100 µM (inactive); in the assay with HCT-15, over 100 µM; in the assay with KM12 it was > 100 µM (inactive); in the assay with OVCAR-5 it was > 100 µM (inactive). Besides, the GI50 in the assay with RPMI-8226, with RXF 393, in the assay with SF-268, in the assay on SK-OV-3, with SR and with TK-10 was > 100 µM (inactive) throughout. In addition, the GI50 with U-251, in the assay with UACC-257 and with UO-31 was > 100 µM (inactive) in each case.
Turning to `COc1cc2c3c(c1OCc1ccccc1)NCCC3NCC2` (stereo not given), the GI50 is > 100 µM (inactive) in the assay with CAKI-1; > 100 µM (inactive) in the assay with CCRF-CEM; > 100 µM (inactive) with HCT-116; over 100 µM with HCT-15; > 100 µM (inactive) in the assay on KM12; > 100 µM (inactive) in the assay on OVCAR-5. The GI50 in the assay with RPMI-8226 was > 100 µM (inactive); in the assay on RXF 393, 98.2 µM (inactive); with SF-268 it was > 100 µM (inactive); in the assay with SR, > 100 µM (inactive); in the assay with TK-10, > 100 µM (inactive); in the assay on U-251, > 100 µM (inactive). Moreover, the results for the GI50 with UACC-257 and in the assay on UO-31 were > 100 µM (inactive) and 51.6 µM (inactive), respectively.
As for `Cc1c(O)c(=O)ccn1CCO`, the GI50 is > 100 µM (inactive) with CAKI-1; > 100 µM (inactive) with CCRF-CEM; > 100 µM (inactive) in the assay with HCT-116; over 100 µM in the assay on HCT-15; > 100 µM (inactive) with KM12; > 100 µM (inactive) in the assay on OVCAR-5. The GI50 in the assay with RPMI-8226, in the assay with RXF 393, in the assay on SF-268, in the assay on SK-OV-3, with SR and in the assay on TK-10 was > 100 µM (inactive) throughout. The GI50 with U-251, in the assay on UACC-257 and in the assay on UO-31 was > 100 µM (inactive) in each case.
As to `O=C(c1cccc2ccccc12)C1(Br)S(=O)(=O)OCCOS1(=O)=O`, the GI50 in the assay with BT-549 is > 100 µM (inactive); with CAKI-1, > 100 µM (inactive); in the assay with DU-145, > 100 µM (inactive); with HCT-116 it was > 100 µM (inactive); in the assay with HCT-15, over 100 µM; in the assay on KM12, > 100 µM (inactive). The GI50 in the assay with MDA-MB-231, with OVCAR-5, in the assay with RPMI-8226, in the assay with SR, in the assay on TK-10 and in the assay on U-251 was > 100 µM (inactive) each time. The GI50 in the assay with UACC-257 and with UO-31 was > 100 µM (inactive) each time.
Consider `C/C=C(\C)C(=O)N1c2ccccc2CC1c1c(C)[nH]c2ccccc12` (stereo not given), for which the GI50 with CAKI-1 is 48.8 µM (inactive); in the assay on CCRF-CEM, 42.5 µM (inactive); in the assay with HCT-116, 86.9 µM (inactive); with HCT-15, 37 µM; with KM12 it was 26.7 µM (inactive); with OVCAR-5 it was 37.3 µM (inactive). The GI50 was 25.3 µM (inactive) in the assay with RPMI-8226; > 100 µM (inactive) in the assay on RXF 393; > 100 µM (inactive) with SK-OV-3; > 100 µM (inactive) in the assay on SR; 73.3 µM (inactive) in the assay with TK-10; 91.6 µM (inactive) in the assay with U-251. Moreover, the GI50 with UACC-257 was 25.2 µM (inactive); with UO-31, 36.1 µM (inactive).
Take `CC1CN1P1(N2CC2C)=NP(N2CC2C)(N2CC2C)=NP(N2CC2C)(N2CC2C)=N1` (stereo not given): the GI50 is > 50 µM (inactive) with CAKI-1; > 50 µM (inactive) in the assay with CCRF-CEM; > 50 µM (inactive) in the assay with HCT-116; over 50 µM in the assay with HCT-15; > 50 µM (inactive) in the assay on RPMI-8226; > 50 µM (inactive) in the assay on RXF 393. Further, the GI50 with SF-268, in the assay with SK-OV-3, in the assay with SR, with TK-10, in the assay on U-251 and with UO-31 was > 50 µM (inactive) throughout.
For `COc1ccc(/C(Cl)=C/c2cc(OC)ccc2OC)cc1`, the GI50 with CCRF-CEM is 31.8 µM (inactive); in the assay with HCT-116, 48.8 µM (inactive); in the assay with HCT-15 it was 53.2 µM; in the assay with RPMI-8226, 34.2 µM (inactive); with RXF 393, 20.5 µM (inactive); with SF-268, 58.2 µM (inactive). Moreover, the GI50 with SK-OV-3 was 99.8 µM (inactive); in the assay on SR it was 30.6 µM (inactive); in the assay on U-251, 84.7 µM (inactive); in the assay on UACC-257, > 100 µM (inactive); in the assay on UO-31, 98.9 µM (inactive).
